From publication PMC2193167 (The Journal of Experimental Medicine, 2000)
No end group written: not given here.

Experiments:
HLA-A*0201 = HLA-A*0201 (Homo sapiens, UniProt P04439, D140Y/D185E/D98H/E176V/E277Q/G131W/G231S/I119V/I121R/I166T/I218V/L300P/L318F/N151K/N90K/P208A/P217A/Q86G/Q94H/R138H/R169H/T345S); test: Class I peptide binding affinity assay
[1] = test system: normal melanocytes in AAD^+tyrosinase^+ (or AAD^−) C57BL/6 mice; settings: mouse, in vivo

Row | Compound | IC50 (HLA-A*0201) | vitiligo, in words [1]
1 | FMDGTMSQV [FMDGTMSQV] | 65 nM | –
2 | CSCC[C@H](NC(=O)[C@@H](NC(=O)CNC(=O)[C@H](CC(=O)O)NC(=O)[C@H](CCSC)NC(=O)[C@@H](N)Cc1ccc(O)cc1)[C@@H](C)O)C(=O)N[C@@H](CO)C(=O)N[C@@H](CCC(N)=O)C(=O)N[C@H](C(=O)O)C(C)C [YMDGTMSQV] | 74 nM | –
3 | IL-2: Proleukin (IL-2; Chiron), given alone without CTLs | – | vitiligo was not observed
